Patent US20250222120A1, “SYNTHESIS OF NOVEL SMALL MOLECULE CARM1 DEGRADERS, COMPOUNDS FORMED THEREBY, AND PHARMACEUTICAL COMPOSITIONS CONTAINING THEM” (Wisconsin Alumni Research Foundation, priority 2024, published 2025)

Legend:
BAF155 me2a = BAF155 me2a level in MDA-MB-231 cells, western blot; assay type: cell-based; conditions: 0.5 μM, after 48 h
Source text: FIGS. 7A-7F. […] Cell lysates were collected and CARM1, methyl-BAF155, total BAF155, methyl-PABP1, and total PABP1 levels were detected by Western blot. […] Cell lysates were collected and CARM1, methyl-BAF155, total BAF155 levels were detected by Western blot. […] Cell proliferation rate normalized to day 0 was plotted. […] Migrated cells were stained with 1% crystal violet and the percentage of migrated cells were plotted. Data mean±s.d. ***. P≤0.001.
(§1) Western Blot Assay. Cells were harvested and washed with Dulbecco's phosphate-buffered saline (PBS), then lysed with 1×RIPA lysis buffer (50 mM Tris pH 7.5, 150 mM NaCl, 1% NP-40, 0.5% sodium deoxycholate, and 0.1% sodium dodecyl sulfate) supplemented with 1 mM phenylmethylsulfonyl fluoride, 10 μg/mL aprotinin, 1 μM leupeptin, and 10 μg/mL pepstatin on ice for 20 min. The supernatant was collected after spinning down at 15000 RPM at 4 degrees Celsius for 10 min. The concentration of whole lysates was quantified using a Bradford assay. 50-75 μg of cell lysates was boiled in 4× Laemmli Loading Dye and boiled at 100 degrees Celsius for 10 min. 25 μg were run in 8% SDS-PAGE gels and transferred to nitrocellulose membranes. Blots were blocked in 5% skim milk in PBST [PBS and 0.1% Tween 20] for 45 min, then incubated with primary antibodies at 4 degrees Celsius overnight. […]

MCF7 cells = assay: Cell proliferation assay, MCF7 cells; assay type: cell-based, human; conditions: 0.5 μM
MCF10A cells = assay: Cell proliferation assay, MCF10A cells; assay type: cell-based, human; conditions: 0.5 μM
MDA-MB-231 cells = assay: Transwell migration assay, MDA-MB-231 cells; assay type: cell-based
Method: Transwell Migration Assay. Cells were harvested and washed in serum-free DMEM. The wells of a 24-well plate were filled with 800 μL of DMEM with 10% FBS. Transwell inserts with […] pore size were then added to the wells with DMEM. Cells were resuspended in serum-free DMEM, then 1×10^5 cells in 200 μL were added to the upper chambers. Drug treatments were added to the lower chambers, then incubated for 20 h at 37° C. The cells on the upper surface were removed with cotton swabs. Migratory cells were fixed in 3.7% formaldehyde at room temperature, followed by 100% methanol at −20° C. Fixed cells were stained with 1% crystal violet in 20% methanol for 30 min. The migration area was quantified from five independent fields of view of the lower surface of the membrane under a microscope.

CARM1 = target: T1, CARM1 (Homo sapiens, UniProt Q86X55); assay: CARM1 degradation by western blot in MCF10A cells; assay type: cell-based; design: endogenous in cells; conditions: normal human mammary epithelial cell model
T1 sequence (Q86X55 1-608): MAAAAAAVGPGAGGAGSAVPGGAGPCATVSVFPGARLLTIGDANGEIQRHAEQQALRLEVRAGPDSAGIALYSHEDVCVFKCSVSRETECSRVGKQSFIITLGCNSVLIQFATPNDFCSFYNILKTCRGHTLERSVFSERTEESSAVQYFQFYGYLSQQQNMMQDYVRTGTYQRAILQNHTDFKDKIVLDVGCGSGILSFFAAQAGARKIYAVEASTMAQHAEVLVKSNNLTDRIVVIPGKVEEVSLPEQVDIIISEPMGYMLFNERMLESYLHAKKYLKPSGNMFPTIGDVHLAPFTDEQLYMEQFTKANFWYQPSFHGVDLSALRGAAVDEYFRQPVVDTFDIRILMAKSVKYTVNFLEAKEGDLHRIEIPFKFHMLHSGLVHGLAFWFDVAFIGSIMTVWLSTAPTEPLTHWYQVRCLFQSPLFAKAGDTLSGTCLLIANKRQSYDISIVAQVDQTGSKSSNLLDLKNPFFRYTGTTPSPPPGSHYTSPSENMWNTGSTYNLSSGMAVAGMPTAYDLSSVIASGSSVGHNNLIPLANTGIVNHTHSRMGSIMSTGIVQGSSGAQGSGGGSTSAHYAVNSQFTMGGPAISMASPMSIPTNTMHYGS
Method: FIG. 5. […] Cell lysates were collected and the CARM1 levels were detected by western blots.
as §1, with “overnight. Blots were washed in PBST for 30 min, then incubated with horseradish peroxidase-linked secondary antibodies (Jackson ImmunoResearch) for 1 hr. Afterwards, blots were washed in PBST for 15-30 min, then treated with chemiluminescent ECL reagent and imaged with the ChemiDoc Imaging System (Bio-Rad) or Azure 600 (Azure Biosystems).” for “overnight.”

In the case of `CNCCN1CCC(c2cc(CN(C)C(=O)c3cccc(Oc4ccc(OCC(=O)N5CCC(CN6CCC(CN7CCN(CC(=O)N[C@H](C(=O)N8C[C@H](O)C[C@H]8C(=O)N[C@@H](C)c8ccc(-c9scnc9C)cc8)C(C)(C)C)CC7)CC6)CC5)cc4)c3)ccn2)CC1` [Compound 3b, (2S,4R)-1-((S)-3,3-dimethyl-2-(2-(4-((1-((1-(2-(4-(3-(methyl((2-(1-(2-(methylamino)ethyl)piperidin-4-yl)pyridin-4-yl)methyl)carbamoyl)phenoxy)phenoxy)acetyl)piperidin-4-yl)methyl)piperidin-4-yl)methyl)piperazin-1-yl)acetamido)butanoyl)-4-hydroxy-N—((S)-1-(4-(4-methylthiazol-5-yl)phenyl)ethyl)pyrrolidine-2-carboxamide], the “BAF155 me2a level” value (BAF155 me2a) is reported as “decrease of BAF155 me2a level was observed”, the Cell proliferation (MCF7 cells) is reported as “not to inhibit cell proliferation” and the Cell proliferation (MCF10A cells) is reported as “not to inhibit cell proliferation”. The “Dose lower than the corresponding inhibitor for the same anti-migratory effects” value (MDA-MB-231 cells; 0.5 μM 3b versus 10 μM TP-064) was 20 fold, the Cell migration (MDA-MB-231 cells; 0.5 μM, transwell, 20 h) was “inhibited cell migration at a similar level” and the CARM1 degradation (CARM1) was “high potency for CARM1 degradation”.
